Where two headings read alike, the source gives them in different places.

The subject of series [1] is SW480, MES-SA, MES-SA/Dx5, HL60, 41M, SK-BR-3. Further details: method as in PMID 32336116, PMID 22189939, PMID 31250199. Particulars: several human cancer cells; ref [36],[58],[80]; read-out: IC50 values reported; cited from earlier work.
For series [2] the following is noted: ref [67]; cited from earlier work.
The subject of series [3] is Colo205. Also on record: method as in doi:10.1039/D0NJ01070G. Particulars: 72 h of exposure; ref [77]; cited from earlier work.
The subject of series [4] is Colo320. Also on record: method as in doi:10.1039/D0NJ01070G. Particulars: 72 h of exposure; ref [77]; cited from earlier work.
The subject of series [5] is MRC-5. Also on record: method as in doi:10.1039/D0NJ01070G. Particulars: 72 h of exposure; ref [77]; cited from earlier work.
The subject of series [6] is SW480 cells. The series is described as follows: Cell cycle distribution by flow cytometry. In kind it is cell-based, human. The settings on record: 0.01 μM; 24 h. The source says:
[…] TEXT PRINTED IN THE PICTURE: (A) no label printed: S: 27.7% | (B) no label printed: S: 33.8% | (C) no label printed: S: 44.0% | (D) no label printed: S: 46.5% DOUBTS OF THE COPYIST ABOUT THIS PICTURE: No substance labels are printed in the picture, only the panel letters A-D. / The phase label "S" is printed only in panel A. Applying it to the percentages in panels B, C and D is assumed from where the marker line sits.

Series [7] has as its system Colo205. The series is described as follows: MTT cytotoxicity assay, Colo205. In kind it is cell-based. The settings on record: Homo sapiens, COLO 205, 72 h of exposure. As for the experimental part: (§1) The in vitro cytotoxicity of the TSCs HL^1–HL^3, copper(II) complexes Cu(HL^1)Cl2, [Cu(L^2)Cl], and Cu(HL^3)Cl2, and oxidized TSCs HL^1a′, HL^1a″, and HL^2c′·CH3COOH was tested in the doxorubicin-sensitive Colo205 and the multidrug-resistant Colo320 human colonic adenocarcinoma cell lines as well as in normal human embryonal lung fibroblast cells (MRC-5) by the colorimetric MTT assay. […]
(§2) 2.5. In vitro cell studies
(§3) 2.5.1. Cell lines and culture conditions
(§4) All cell culture reagents were obtained from Sigma-Aldrich and plastic ware from Sarstedt
(§5) (Germany). Doxorubicin-sensitive human colonic Colo 205 and multidrug resistant
(§6) Colo 320/MDR-LRP adenocarcinoma cell lines were purchased from LGC Promochem,
(§7) Teddington, UK. The cells were cultured in Roswell Park Memorial Institute (RPMI) 1640
(§8) medium supplemented with 10% heat-inactivated fetal bovine serum, 2 mM L-glutamine, 1 mM
(§9) Na-pyruvate and 100 mM Hepes. The cell lines were incubated at 37°C, in a 5% CO2, 95% air
(§10) MRC-5 human embryonal lung fibroblast cell line (ATCC CCL-171) was purchased from LGC
(§11) Promochem, Teddington, UK. The cell line was cultured in Eagle’s Minimal Essential Medi um
(§12) (EMEM, containing 4.5 g/L glucose) supplemented with a non-essential amino acid mixture, a
(§13) selection of vitamins and 10% heat-inactivated fetal bovine serum. The cells were incubated at
(§14) 37°C, in a 5% CO2, 95% air atmosphere. All cell lines were detached with Trypsin-Versene
(§15) (EDTA) solution for 5 min at 37 °C.
(§16) The tested compounds were dissolved in DMSO using 10 mM concentration. Then stock solutions
(§17) were diluted in complete culture medium in 96-well microtiter plates, and two-fold serial dilutions
(§18) of compounds were prepared in 100 µL of RPMI 1640, horizontally. The semi-adherent colonic
(§19) adenocarcinoma cells were treated with Trypsin -Versene (EDTA) solution. They were adjusted to
(§20) a density of 1×10^4 cells in 100 µL of RPMI 1640 medium, and were added to each well, with the
(§21) exception of the medium control wells. The final volume of the wells containing compounds and
(§22) cells was 200 µL. The culture were incubated at 37 °C for 72 h; at the end of the incubation period,
(§23) 20 µL of MTT solution (from a stock solution of 5 mg/mL) were added to each well. After
(§24) incubation at 37 °C for 4 h, 100 µL of SDS solution (10% in 0.01 M HCI) were added to each well
(§25) and the plates were further incubated at 37 °C overnight. The cell growth was determined using
(§26) both methods by measuring the optical density (OD) at 450 nm (ref. 620 nm) with a Multiscan EX
(§27) ELISA reader. Inhibition of the cell growth (expressed as IC 50: inhibitory concentration that
(§28) reduces by 50% the growth of the cells exposed to the tested compounds) was determined from
(§29) the sigmoid curve where 100 – ((ODsample ‒ ODmedium control)/(ODcell control ‒ ODmedium control)) × 100
(§30) values were plotted against the logarithm of compound concentrations. […]
(§31) 0.76 tyrosyl radical/polypeptide. Samples containing 20 µM mR2 in 50 mM HEPES buffer, pH
(§32) 7.50/100 mM NaCl, and 20 µM respective compound in 1% (v/v) DMSO/H2O, and 2 mM

Series [8] concerns Colo320. The series is described as follows: MTT cytotoxicity assay, Colo320. The settings on record: Homo sapiens, COLO 320, 72 h of exposure. In kind it is cell-based. As for the experimental part: as §1, §2, §3, §4, §5, §6, §7, §8, §9, §10, §11, §12, §13, §14, §15, §16, §17, §18, §19, §20, §21, §22, §23, §24, §25, §26, §27, §28, §29, §30, §31, §32

In series [9] the test system is MRC-5. The series is described as follows: MTT cytotoxicity assay, MRC-5. The settings on record: Homo sapiens, MRC5, 72 h of exposure. In kind it is cell-based. As for the experimental part: as §2, §3
All cell culture reagents were obtained from Sigma-Aldrich and plastic ware from Sarstedt […]
as §10, §11, §12, §13, §14, §15, §16, §17, §18, §19, §20, §21, §22, §23, §24, §25, §26, §27, §28, §29, §30
In general terms: Tetrazolium dyes change colour on reduction, which living cells bring about.

Series [10] deals with T1, mouse R2 RNR protein (Mus musculus, UniProt P11157).
T1 construct: made in house
T1 sequence (P11157 1-390): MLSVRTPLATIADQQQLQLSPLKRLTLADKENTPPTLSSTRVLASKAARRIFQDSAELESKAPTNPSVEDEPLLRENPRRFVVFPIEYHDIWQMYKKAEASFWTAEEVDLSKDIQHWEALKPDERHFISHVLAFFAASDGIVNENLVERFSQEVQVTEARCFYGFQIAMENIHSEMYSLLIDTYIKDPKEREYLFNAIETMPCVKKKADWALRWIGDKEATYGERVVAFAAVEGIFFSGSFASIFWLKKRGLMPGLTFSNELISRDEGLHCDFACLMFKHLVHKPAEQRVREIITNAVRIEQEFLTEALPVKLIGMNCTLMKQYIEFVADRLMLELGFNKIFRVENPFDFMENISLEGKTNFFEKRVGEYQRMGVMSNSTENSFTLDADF
The series is described as follows: Tyrosyl radical reduction in mouse R2 RNR protein (EPR). In kind it is biochemical. The settings on record: 20 μM compound; for effect on the tyrosyl radical content in the presence of DTT: 2 mM DTT; for effect on the tyrosyl radical in the absence of DTT: no DTT. Here is the method: The time-dependent tyrosyl radical reduction in mR2 RNR by equimolar concentrations of TSCs and their respective copper(II) complexes, under reducing conditions, is shown in Figure 15. […] The favorable impact of the copper(II) coordination on the HL^2 inhibitory activity is quite obvious, when the ability to quench the tyrosyl radical by HL^2 is compared to that of 2′.
The samples contained 20 μM mR2 in 50 mM HEPES buffer, pH 7.60/100 mM KCl, 20 μM compound in 1% (v/v) DMSO/H2O, and 2 mM DTT. […]
2.6. Tyrosyl radical reduction in mouse R2 RNR protein
The tyrosyl radical reduction in mR2 protein by HL1, HL2, HL3, Cu(HL1)Cl2, [Cu(L2)Cl],
Cu(HL3)Cl2, HL1a’, HL1a’’, and HL2c´·CH3COOH was measured by EPR spectroscopy at 30 K,
on a Bruker Elexsys II E540 EPR spectrometer with an Oxford Instruments ER 4112HV helium
cryostat, as described previously.12,13 mR2 protein was expressed, purified, and iron -reconstituted
as described previously, 14 and passed through a 5 mL HiTrap desalting column (GE Healthcare)
as §31, §32
dithiothreitol (DTT) were incubated for indicated times and quickly frozen in cold isopentane. The
same samples were used for repeated incubations at room temperature. […]
Furthermore, the intrinsic reaction coordinate (IRC) analysis was
performed to authenticate that the transition state pertains to the desired reaction coordinate. The
IRC calculations were done at the B3LYP/6-311++G(d,p) level of theory. Molecular orbitals were
drawn using Molekel software.17
3. Schemes for assignment of resonances in HL1 – HL3 and their isomers
Scheme S1. The atom numbering for the assignment of resonances in HL1 – HL3.
(1 picture or pasted object on this page, not shown here)

Broadly, the IC50 is the concentration at which inhibition is half-maximal. `C/C(=N\NC(N)=S)c1ccccn1` [AcTSC, 2-acetylpyridine TSC]: the IC50 in series [1] is 2.5 to 3.6 µM. Besides, the “log D7.4” value in [2] is reported as “+1.02”.
Regarding `[Cl][Cu][Cl]` [CuCl2, copper(II) chloride], the IC50 in series [3] was 19.7 µM; in series [4], 20 µM; in [5] it was 24.5 µM.
For `NC(=S)NN=Cc1ccccn1` [FTSC, 2-formylpyridine TSC], in series [1], the IC50 is 1.9 to 10.6 µM. The “log D7.4” value in series [2] is “+0.73”.
In series [6], `Nc1ccn([C@@H]2O[C@H](CO)[C@@H](O)C2(F)F)c(=O)n1` [Gemcitabine, reference compound] returned a G1 phase cells of 26.8% and a S phase cells of 62.3%.
As to `Cc1cc(Nc2nnc(-c3ccccn3)s2)cc(C)c1O` [HL^1a′], the IC50 in [7], in [8] and in series [9] was greater than 25 µM in each case. For the same compound, the “effect on the tyrosyl radical content in the presence of DTT” value in series [10] is recorded as “cause an increase in the radical content”. The “effect on the tyrosyl radical in the absence of DTT” value in series [10] is listed as “do not have an effect”.
As to `CC1=CC(=Nc2nnc(-c3ccccn3)s2)C=C(C)C1=O` [HL^1a″], the IC50 in series [7], in series [8] and in [9] was greater than 25 µM throughout. Moreover, the “effect on the tyrosyl radical content in the presence of DTT” value in series [10] is “cause an increase in the radical content”. Also, the “effect on the tyrosyl radical in the absence of DTT” value in series [10] was “do not have an effect”.

Source of the values: publication PMC8335727 (Inorganic Chemistry, 2021).
